Measurements published in PubChem BioAssay (NCI).
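The compound was tested at five concentrations on cells cultured in 96-well plates, with a 48-hour exposure period. GI50 marks 50% less growth. The concentration for full growth arrest is given as TGI.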

Key:
Experiment in all cases: NCI anticancer screen, dose series, 48 h
SK-OV-3 ovarian = tested on: SK-OV-3 ovarian
786-0 renal = tested on: 786-0 renal
IGROV1 ovarian = tested on: IGROV1 ovarian
SF-295 CNS = tested on: SF-295 CNS
HS 578T breast = tested on: HS 578T breast
NCI-H522 lung = tested on: NCI-H522 lung
SR leukemia = tested on: SR leukemia
NCI-H460 lung = tested on: NCI-H460 lung
CAKI-1 renal = tested on: CAKI-1 renal
RPMI-8226 leukemia = tested on: RPMI-8226 leukemia
SF-539 CNS = tested on: SF-539 CNS
A498 renal = tested on: A498 renal
RXF 393 renal = tested on: RXF 393 renal
BT-549 breast = tested on: BT-549 breast
ACHN renal = tested on: ACHN renal
NCI/ADR-RES ovarian = tested on: NCI/ADR-RES ovarian
UACC-257 melanoma = tested on: UACC-257 melanoma
KM12 colon = tested on: KM12 colon
UO-31 renal = tested on: UO-31 renal
MCF7 breast = tested on: MCF7 breast
HL-60(TB) leukemia = tested on: HL-60(TB) leukemia
OVCAR-5 ovarian = tested on: OVCAR-5 ovarian
SW-620 colon = tested on: SW-620 colon
SNB-75 CNS = tested on: SNB-75 CNS
NCI-H23 lung = tested on: NCI-H23 lung
COLO 205 colon = tested on: COLO 205 colon
SF-268 CNS = tested on: SF-268 CNS
MDA-MB-435 = tested on: MDA-MB-435
K-562 leukemia = tested on: K-562 leukemia
SN12C renal = tested on: SN12C renal
HCT-116 colon = tested on: HCT-116 colon
TK-10 renal = tested on: TK-10 renal
DU-145 prostate = tested on: DU-145 prostate
HOP-62 NSCLC = tested on: HOP-62 NSCLC
LOX IMVI melanoma = tested on: LOX IMVI melanoma
SK-MEL-28 melanoma = tested on: SK-MEL-28 melanoma
MDA-MB-231 breast = tested on: MDA-MB-231 breast
HCT-15 colon = tested on: HCT-15 colon
OVCAR-4 ovarian = tested on: OVCAR-4 ovarian
T-47D breast = tested on: T-47D breast
SNB-19 CNS = tested on: SNB-19 CNS
HCC-2998 colon = tested on: HCC-2998 colon
OVCAR-8 ovarian = tested on: OVCAR-8 ovarian
SK-MEL-5 melanoma = tested on: SK-MEL-5 melanoma
OVCAR-3 ovarian = tested on: OVCAR-3 ovarian
NCI-H226 lung = tested on: NCI-H226 lung
HT29 colon = tested on: HT29 colon
CCRF-CEM leukemia = tested on: CCRF-CEM leukemia
HOP-92 NSCLC = tested on: HOP-92 NSCLC
U251 CNS = tested on: U251 CNS
A549 NSCLC = tested on: A549 NSCLC
UACC-62 melanoma = tested on: UACC-62 melanoma
M14 melanoma = tested on: M14 melanoma
MOLT-4 leukemia = tested on: MOLT-4 leukemia
SK-MEL-2 melanoma = tested on: SK-MEL-2 melanoma
PC-3 prostate = tested on: PC-3 prostate
EKVX NSCLC = tested on: EKVX NSCLC

Cc1cc(Nc2ncc(F)c(N[C@H]3[C@@H](C(N)=O)[C@@H]4C=C[C@H]3C4)n2)ccc1N1CCN(C)CC1 was tested, and the GI50 (SK-OV-3 ovarian) was 0.0368 µM, the TGI (SK-OV-3 ovarian) was 2.22 µM and the GI50 (786-0 renal) was 0.0688 µM. For the same compound, the TGI (786-0 renal) was 5.25 µM, the GI50 (IGROV1 ovarian) was 0.0302 µM and the TGI (IGROV1 ovarian) was 18.8 µM. For the same compound, the GI50 (SF-295 CNS) was under 0.0177 µM, the TGI (SF-295 CNS) was 12.7 µM and the GI50 (HS 578T breast) was 0.0274 µM. The TGI (HS 578T breast) was 0.33 µM, the GI50 (NCI-H522 lung) was 0.0436 µM and the TGI (NCI-H522 lung) was 3.35 µM. It also gave a GI50 (SR leukemia) of under 0.01 µM, a TGI (SR leukemia) of 2.32 µM and a GI50 (NCI-H460 lung) of 0.0101 µM. For the same compound, the TGI (NCI-H460 lung) was 4.21 µM, the GI50 (CAKI-1 renal) was 0.0217 µM and the TGI (CAKI-1 renal) was 14 µM. The GI50 (RPMI-8226 leukemia) was 1.86 µM, the TGI (RPMI-8226 leukemia) was 6.85 µM and the GI50 (SF-539 CNS) was 0.0362 µM. It also gave a TGI (SF-539 CNS) of 0.586 µM, a GI50 (A498 renal) of under 0.0116 µM and a TGI (A498 renal) of 0.0693 µM. The GI50 (RXF 393 renal) was 0.0165 µM, the TGI (RXF 393 renal) was 0.187 µM and the GI50 (BT-549 breast) was 0.0765 µM. For the same compound, the TGI (BT-549 breast) was 1.15 µM, the GI50 (ACHN renal) was 0.0178 µM and the TGI (ACHN renal) was 12.9 µM. For the same compound, the GI50 (NCI/ADR-RES ovarian) was 0.348 µM, the TGI (NCI/ADR-RES ovarian) was 8.57 µM and the GI50 (UACC-257 melanoma) was 4.07 µM. It also gave a TGI (UACC-257 melanoma) of 18.1 µM, a GI50 (KM12 colon) of 0.208 µM and a TGI (KM12 colon) of 11.5 µM. The GI50 (UO-31 renal) was 0.0393 µM, the TGI (UO-31 renal) was 4.64 µM and the GI50 (MCF7 breast) was 0.0599 µM. The TGI (MCF7 breast) was 3.23 µM, the GI50 (HL-60(TB) leukemia) was 2.96 µM and the TGI (HL-60(TB) leukemia) was 11.4 µM. For the same compound, the GI50 (OVCAR-5 ovarian) was 0.0405 µM, the TGI (OVCAR-5 ovarian) was over 20.4 µM and the GI50 (SW-620 colon) was 0.0218 µM. For the same compound, the TGI (SW-620 colon) was 8.5 µM, the GI50 (SNB-75 CNS) was under 0.0153 µM and the TGI (SNB-75 CNS) was 0.167 µM. The GI50 (NCI-H23 lung) was 1.51 µM, the TGI (NCI-H23 lung) was 7.15 µM and the GI50 (COLO 205 colon) was under 0.01 µM. The TGI (COLO 205 colon) was under 0.0326 µM, the GI50 (SF-268 CNS) was 0.107 µM and the TGI (SF-268 CNS) was 6.68 µM. For the same compound, the GI50 (MDA-MB-435) was 1.49 µM, the TGI (MDA-MB-435) was 15.6 µM and the GI50 (K-562 leukemia) was 0.416 µM. The TGI (K-562 leukemia) was over 100 µM, the GI50 (SN12C renal) was 0.0328 µM and the TGI (SN12C renal) was 11.5 µM. It also gave a GI50 (HCT-116 colon) of 0.0199 µM, a TGI (HCT-116 colon) of 7.81 µM and a GI50 (TK-10 renal) of 0.0225 µM. The TGI (TK-10 renal) was 1.96 µM, the GI50 (DU-145 prostate) was 0.455 µM and the TGI (DU-145 prostate) was 17.7 µM. It also gave a GI50 (HOP-62 NSCLC) of 0.134 µM, a TGI (HOP-62 NSCLC) of 2.56 µM and a GI50 (LOX IMVI melanoma) of 0.0249 µM. The TGI (LOX IMVI melanoma) was 1.29 µM, the GI50 (SK-MEL-28 melanoma) was 4.28 µM and the TGI (SK-MEL-28 melanoma) was 17.7 µM. It also gave a GI50 (MDA-MB-231 breast) of 0.124 µM, a TGI (MDA-MB-231 breast) of 1.73 µM and a GI50 (HCT-15 colon) of 0.0374 µM. For the same compound, the TGI (HCT-15 colon) was 16 µM, the GI50 (OVCAR-4 ovarian) was 1.6 µM and the TGI (OVCAR-4 ovarian) was 3.22 µM. The GI50 (T-47D breast) was 6.74 µM, the TGI (T-47D breast) was 26.7 µM and the GI50 (SNB-19 CNS) was 0.725 µM. It also gave a TGI (SNB-19 CNS) of 8.75 µM, a GI50 (HCC-2998 colon) of 2.15 µM and a TGI (HCC-2998 colon) of 6.18 µM. The GI50 (OVCAR-8 ovarian) was 0.133 µM, the TGI (OVCAR-8 ovarian) was 6.34 µM and the GI50 (SK-MEL-5 melanoma) was 1.97 µM. For the same compound, the TGI (SK-MEL-5 melanoma) was 6.79 µM, the GI50 (OVCAR-3 ovarian) was 1.48 µM and the TGI (OVCAR-3 ovarian) was 3.15 µM. The GI50 (NCI-H226 lung) was under 0.0156 µM, the TGI (NCI-H226 lung) was 2.85 µM and the GI50 (HT29 colon) was 0.0471 µM. For the same compound, the GI50 (CCRF-CEM leukemia) was under 0.01 µM, the TGI (CCRF-CEM leukemia) was 6.03 µM and the GI50 (HOP-92 NSCLC) was 0.0249 µM. For the same compound, the TGI (HOP-92 NSCLC) was 0.327 µM, the GI50 (U251 CNS) was 0.0694 µM and the TGI (U251 CNS) was 4.8 µM. It also gave a GI50 (A549 NSCLC) of under 0.01 µM and a TGI (A549 NSCLC) of 2.32 µM.

In the case of COc1ccc2c(=O)c(-c3cc4c(cc3OC)OCO4)coc2c1, the TGI (SK-OV-3 ovarian) is reported as over 100 µM, the TGI (786-0 renal) is reported as over 100 µM and the TGI (IGROV1 ovarian) is reported as over 100 µM. It also gave a TGI (UACC-62 melanoma) of over 100 µM, a TGI (SF-295 CNS) of over 100 µM and a TGI (HS 578T breast) of over 100 µM. It also gave a TGI (NCI-H522 lung) of over 100 µM, a TGI (SR leukemia) of over 100 µM and a TGI (NCI-H460 lung) of over 100 µM. For the same compound, the TGI (CAKI-1 renal) was over 100 µM, the TGI (RPMI-8226 leukemia) was over 100 µM and the TGI (SF-539 CNS) was over 100 µM. It also gave a TGI (A498 renal) of over 100 µM, a TGI (BT-549 breast) of over 100 µM and a TGI (ACHN renal) of over 100 µM. It also gave a TGI (NCI/ADR-RES ovarian) of over 100 µM, a TGI (UACC-257 melanoma) of over 100 µM and a TGI (KM12 colon) of over 100 µM. It also gave a TGI (M14 melanoma) of over 100 µM, a TGI (UO-31 renal) of over 100 µM and a TGI (MCF7 breast) of over 100 µM. The TGI (HL-60(TB) leukemia) was over 100 µM, the TGI (OVCAR-5 ovarian) was over 100 µM and the TGI (SW-620 colon) was over 100 µM. It also gave a TGI (SNB-75 CNS) of over 100 µM, a TGI (NCI-H23 lung) of over 100 µM and a TGI (COLO 205 colon) of over 100 µM. It also gave a TGI (SF-268 CNS) of over 100 µM, a TGI (SN12C renal) of over 100 µM and a TGI (HCT-116 colon) of over 100 µM. It also gave a TGI (TK-10 renal) of over 100 µM, a TGI (MOLT-4 leukemia) of over 100 µM and a TGI (DU-145 prostate) of over 100 µM. It also gave a TGI (HOP-62 NSCLC) of over 100 µM, a TGI (LOX IMVI melanoma) of over 100 µM and a TGI (SK-MEL-28 melanoma) of over 100 µM. The TGI (SK-MEL-2 melanoma) was over 100 µM, the TGI (MDA-MB-231 breast) was over 100 µM and the TGI (HCT-15 colon) was over 100 µM. The TGI (OVCAR-4 ovarian) was over 100 µM, the TGI (T-47D breast) was over 100 µM and the TGI (SNB-19 CNS) was over 100 µM. It also gave a TGI (HCC-2998 colon) of over 100 µM, a TGI (PC-3 prostate) of over 100 µM and a TGI (OVCAR-8 ovarian) of over 100 µM. It also gave a TGI (SK-MEL-5 melanoma) of over 100 µM, a TGI (OVCAR-3 ovarian) of over 100 µM and a TGI (NCI-H226 lung) of over 100 µM. The TGI (HT29 colon) was over 100 µM, the TGI (CCRF-CEM leukemia) was over 100 µM and the TGI (HOP-92 NSCLC) was over 100 µM. The TGI (U251 CNS) was over 100 µM, the TGI (A549 NSCLC) was over 100 µM and the TGI (EKVX NSCLC) was over 100 µM.
